Assay results from PubChem BioAssay (NCI).
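Interpolation was linear, between the two tested concentrations surrounding the appropriate level; five concentrations were tested over 48 hours in 96-well plates. TGI denotes the concentration required for complete inhibition of growth.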

Legend:
Assay in all cases: DTP human tumour cell line panel, 48 h
786-0 renal = system: 786-0 renal
A498 renal = system: A498 renal
A549 NSCLC = system: A549 NSCLC
ACHN renal = system: ACHN renal
BT-549 breast = system: BT-549 breast
CAKI-1 renal = system: CAKI-1 renal
CCRF-CEM leukemia = system: CCRF-CEM leukemia
COLO 205 colon = system: COLO 205 colon
DU-145 prostate = system: DU-145 prostate
EKVX NSCLC = system: EKVX NSCLC
HCT-116 colon = system: HCT-116 colon
HCT-15 colon = system: HCT-15 colon
HL-60(TB) leukemia = system: HL-60(TB) leukemia
HOP-62 NSCLC = system: HOP-62 NSCLC
HOP-92 NSCLC = system: HOP-92 NSCLC
HS 578T breast = system: HS 578T breast
HT29 colon = system: HT29 colon
IGROV1 ovarian = system: IGROV1 ovarian
K-562 leukemia = system: K-562 leukemia
KM12 colon = system: KM12 colon
LOX IMVI melanoma = system: LOX IMVI melanoma
M14 melanoma = system: M14 melanoma
MALME-3M melanoma = system: MALME-3M melanoma
MCF7 breast = system: MCF7 breast
MDA-MB-231 breast = system: MDA-MB-231 breast
MDA-MB-435 = system: MDA-MB-435
MDA-N = system: MDA-N
MOLT-4 leukemia = system: MOLT-4 leukemia
NCI-H226 lung = system: NCI-H226 lung
NCI-H460 lung = system: NCI-H460 lung
NCI-H522 lung = system: NCI-H522 lung
NCI/ADR-RES ovarian = system: NCI/ADR-RES ovarian
OVCAR-3 ovarian = system: OVCAR-3 ovarian
OVCAR-4 ovarian = system: OVCAR-4 ovarian
OVCAR-5 ovarian = system: OVCAR-5 ovarian
OVCAR-8 ovarian = system: OVCAR-8 ovarian
PC-3 prostate = system: PC-3 prostate
RPMI-8226 leukemia = system: RPMI-8226 leukemia
RXF 393 renal = system: RXF 393 renal
SF-268 CNS = system: SF-268 CNS
SF-295 CNS = system: SF-295 CNS
SF-539 CNS = system: SF-539 CNS
SK-MEL-2 melanoma = system: SK-MEL-2 melanoma
SK-MEL-28 melanoma = system: SK-MEL-28 melanoma
SK-MEL-5 melanoma = system: SK-MEL-5 melanoma
SK-OV-3 ovarian = system: SK-OV-3 ovarian
SN12C renal = system: SN12C renal
SNB-19 CNS = system: SNB-19 CNS
SNB-75 CNS = system: SNB-75 CNS
SR leukemia = system: SR leukemia
SW-620 colon = system: SW-620 colon
T-47D breast = system: T-47D breast
TK-10 renal = system: TK-10 renal
U251 CNS = system: U251 CNS
UACC-257 melanoma = system: UACC-257 melanoma
UO-31 renal = system: UO-31 renal
HCC-2998 colon = system: HCC-2998 colon
NCI-H23 lung = system: NCI-H23 lung
UACC-62 melanoma = system: UACC-62 melanoma

O=C1NC(=O)C(c2c[nH]c3cc(Br)ccc23)=C1c1cnc[nH]1
TGI (786-0 renal): > 100 µM
TGI (A498 renal): 52.2 µM
TGI (A549 NSCLC): > 100 µM
TGI (ACHN renal): > 100 µM
TGI (BT-549 breast): 75 µM
TGI (CAKI-1 renal): > 100 µM
TGI (CCRF-CEM leukemia): > 100 µM
TGI (COLO 205 colon): 63.2 µM
TGI (DU-145 prostate): > 100 µM
TGI (EKVX NSCLC): > 100 µM
TGI (HCT-116 colon): > 100 µM
TGI (HCT-15 colon): > 100 µM
TGI (HL-60(TB) leukemia): 93.3 µM
TGI (HOP-62 NSCLC): > 100 µM
TGI (HOP-92 NSCLC): > 100 µM
TGI (HS 578T breast): > 100 µM
TGI (HT29 colon): > 100 µM
TGI (IGROV1 ovarian): > 100 µM
TGI (K-562 leukemia): > 100 µM
TGI (KM12 colon): > 100 µM
TGI (LOX IMVI melanoma): > 100 µM
TGI (M14 melanoma): > 100 µM
TGI (MALME-3M melanoma): > 100 µM
TGI (MCF7 breast): > 100 µM
TGI (MDA-MB-231 breast): > 100 µM
TGI (MDA-MB-435): > 100 µM
TGI (MDA-N): > 100 µM
TGI (MOLT-4 leukemia): > 100 µM
TGI (NCI-H226 lung): 7.87 µM
TGI (NCI-H460 lung): > 100 µM
TGI (NCI-H522 lung): 98.7 µM
TGI (NCI/ADR-RES ovarian): > 100 µM
TGI (OVCAR-3 ovarian): 81.4 µM
TGI (OVCAR-4 ovarian): > 100 µM
TGI (OVCAR-5 ovarian): > 100 µM
TGI (OVCAR-8 ovarian): > 100 µM
TGI (PC-3 prostate): > 100 µM
TGI (RPMI-8226 leukemia): > 100 µM
TGI (RXF 393 renal): > 100 µM
TGI (SF-268 CNS): > 100 µM
TGI (SF-295 CNS): > 100 µM
TGI (SF-539 CNS): 72.6 µM
TGI (SK-MEL-2 melanoma): 79.3 µM
TGI (SK-MEL-28 melanoma): > 100 µM
TGI (SK-MEL-5 melanoma): 25 µM
TGI (SK-OV-3 ovarian): > 100 µM
TGI (SN12C renal): > 100 µM
TGI (SNB-19 CNS): > 100 µM
TGI (SNB-75 CNS): > 100 µM
TGI (SR leukemia): > 100 µM
TGI (SW-620 colon): > 100 µM
TGI (T-47D breast): > 100 µM
TGI (TK-10 renal): > 100 µM
TGI (U251 CNS): > 100 µM
TGI (UACC-257 melanoma): 44.9 µM
TGI (UO-31 renal): > 100 µM

Nc1nc2c(c(=O)[nH]1)CN(CCCN1CCOCC1)CN2
TGI (786-0 renal): > 100 µM
TGI (A498 renal): > 100 µM
TGI (A549 NSCLC): > 100 µM
TGI (ACHN renal): > 100 µM
TGI (BT-549 breast): > 100 µM
TGI (CAKI-1 renal): > 100 µM
TGI (COLO 205 colon): > 100 µM
TGI (DU-145 prostate): > 100 µM
TGI (EKVX NSCLC): > 100 µM
TGI (HCC-2998 colon): > 100 µM
TGI (HCT-116 colon): > 100 µM
TGI (HCT-15 colon): > 100 µM
TGI (HOP-62 NSCLC): > 100 µM
TGI (HOP-92 NSCLC): > 100 µM
TGI (HS 578T breast): > 100 µM
TGI (HT29 colon): > 100 µM
TGI (IGROV1 ovarian): > 100 µM
TGI (K-562 leukemia): > 100 µM
TGI (KM12 colon): > 100 µM
TGI (LOX IMVI melanoma): > 100 µM
TGI (M14 melanoma): > 100 µM
TGI (MALME-3M melanoma): > 100 µM
TGI (MCF7 breast): > 100 µM
TGI (MDA-MB-231 breast): > 100 µM
TGI (MDA-MB-435): > 100 µM
TGI (MDA-N): > 100 µM
TGI (MOLT-4 leukemia): > 100 µM
TGI (NCI-H226 lung): > 100 µM
TGI (NCI-H23 lung): > 100 µM
TGI (NCI-H460 lung): > 100 µM
TGI (NCI-H522 lung): > 100 µM
TGI (NCI/ADR-RES ovarian): > 100 µM
TGI (OVCAR-3 ovarian): > 100 µM
TGI (OVCAR-4 ovarian): > 100 µM
TGI (OVCAR-5 ovarian): > 100 µM
TGI (OVCAR-8 ovarian): > 100 µM
TGI (PC-3 prostate): > 100 µM
TGI (RPMI-8226 leukemia): > 100 µM
TGI (SF-268 CNS): > 100 µM
TGI (SF-295 CNS): > 100 µM
TGI (SF-539 CNS): > 100 µM
TGI (SK-MEL-2 melanoma): > 100 µM
TGI (SK-MEL-28 melanoma): > 100 µM
TGI (SK-MEL-5 melanoma): > 100 µM
TGI (SN12C renal): > 100 µM
TGI (SNB-19 CNS): > 100 µM
TGI (SR leukemia): > 100 µM
TGI (SW-620 colon): > 100 µM
TGI (T-47D breast): > 100 µM
TGI (TK-10 renal): > 100 µM
TGI (U251 CNS): > 100 µM
TGI (UACC-257 melanoma): > 100 µM
TGI (UACC-62 melanoma): > 100 µM
TGI (UO-31 renal): > 100 µM
